Columns and labels:
human CCR5 [1] = target: T1, human CCR5 (Homo sapiens, UniProt P51681); assay: Human CCR5-mediated calcium flux in HT1080/CCR5 cells; format: cell-based; conditions: human pharmacology, MIP-1beta 50 nM, read-out: CCR5 Potency, ligand-induced calcium flux in cells
Description: (§1) All samples were tested in duplicate.

human CCR2 [2] = target: T2, human CCR2 (Homo sapiens, UniProt P41597); assay: Human CCR2-mediated CD11b integrin upregulation in whole blood; format: cell-based; conditions: human pharmacology, MCP-1 10 nM, read-out: CCR2 Potency, ligand-induced integrin upregulation in whole blood
T2 sequence (P41597 whole entry): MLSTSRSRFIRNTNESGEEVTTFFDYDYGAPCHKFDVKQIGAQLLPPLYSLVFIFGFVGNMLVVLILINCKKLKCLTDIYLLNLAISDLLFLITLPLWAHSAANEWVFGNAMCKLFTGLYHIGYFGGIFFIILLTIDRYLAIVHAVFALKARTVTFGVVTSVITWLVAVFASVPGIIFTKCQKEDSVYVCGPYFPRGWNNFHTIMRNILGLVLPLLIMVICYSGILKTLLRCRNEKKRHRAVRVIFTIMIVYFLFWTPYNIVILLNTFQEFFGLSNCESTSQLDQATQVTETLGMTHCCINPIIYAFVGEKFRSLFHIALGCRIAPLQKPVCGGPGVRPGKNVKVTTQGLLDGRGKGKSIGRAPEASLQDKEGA
Description: A CCR2-dependent CD11b upregulation assay was established with human whole blood. […] The reactions were incubated for 30 minutes at 37° C. […] The samples were then incubated for 30 minutes on ice in the dark. […] Data acquisition and analysis were performed using CellQuestPro™ software. A sequential gating strategy was used to analyze the CD14high CD11b+ monocyte population. […] A similar procedure for mouse CCR5 was adopted except that MIP-1beta (50 nM) was used as the ligand.

Mouse PK of Compound C = format: in vivo
mouse CCR2 = target: T3, mouse CCR2 (Mus musculus, UniProt P51683); assay: Mouse CCR2 potency (assay not specified)
T3 construct: WEHI-274.1 mouse monocyte line; endogenous in cells; host or cells: WEHI-274.1 mouse monocyte line
T3 sequence (P51683 whole entry): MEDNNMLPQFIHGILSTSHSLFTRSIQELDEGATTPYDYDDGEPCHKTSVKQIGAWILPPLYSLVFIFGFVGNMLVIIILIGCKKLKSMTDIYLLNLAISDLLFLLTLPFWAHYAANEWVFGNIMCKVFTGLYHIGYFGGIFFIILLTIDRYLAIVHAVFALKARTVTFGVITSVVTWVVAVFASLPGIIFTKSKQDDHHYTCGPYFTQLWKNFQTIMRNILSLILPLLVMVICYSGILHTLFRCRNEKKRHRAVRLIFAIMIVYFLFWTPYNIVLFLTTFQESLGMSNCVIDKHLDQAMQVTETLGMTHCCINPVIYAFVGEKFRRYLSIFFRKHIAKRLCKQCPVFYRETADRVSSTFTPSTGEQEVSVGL

human CCR5 [3] = target: T1, human CCR5; assay: Human CCR5-mediated CD11b integrin upregulation in whole blood; format: cell-based; design: established with human whole blood; from tissue; host or cells: human whole blood; conditions: human pharmacology, MIP-1beta 50 nM, read-out: CCR5 Potency, ligand-induced integrin upregulation in whole blood
human CCR2 [4] = target: T2, human CCR2; assay: Human CCR2-mediated calcium flux in THP-1 cells; format: cell-based; design: established with the human monocytic cell line, THP-1; endogenous in cells; host or cells: THP-1 human monocytic cell line; conditions: human pharmacology, human MCP-1 10 nM, read-out: CCR2 Potency, ligand-induced calcium flux in cells
Description: as §1

human CCR5 [5] = target: T1, human CCR5; assay: Inhibition of 125I-MIP-1beta binding to human T cells (human CCR5); design: hPBMCs and human T cells were isolated from human leukopak; endogenous in cells; host or cells: human T cells isolated from human leukopak; conditions: human pharmacology, 125I-human MIP-1beta, read-out: CCR5 Potency, binding on CCR5-expressing cells (displacing 125I-labelled ligand)
Description: All conditions were tested in duplicate.

[6] = test system: Mouse colon tumor MC38 cells; assay: Mouse colon tumor (MC38) model, anti-tumor efficacy; format: in vivo
Description: (§2) Female C57BL/6 mice from Charles River Laboratories (Raleigh, N.C.) were received in house at age 6-8 weeks and acclimated for 3-7 days prior to implant. Mouse colon tumor MC38 cells were implanted subcutaneously at a concentration of 1×10^7 cells/mL, 0.1 mL per injection, using a 1 mL tuberculin syringe with 25 g needle.
On Day 6 post implant, mice were randomized and sorted into groups with 10 mice per group. […] Antibody B was administered i.p. every 4 days for a total of 3 doses.
(§3) Tumors and group body weights were weighed and measured twice weekly until tumors reached a volume of approximately 1500 mm^3. Animals were euthanized if the tumor reached a volume greater than approximately 1500 mm^3 or appeared ulcerated. Mean, median and/or survival plots as well as number of tumor-free mice were calculated to determine efficacy.

[7] = test system: Mouse colon tumor CT26 cells; assay: Mouse colon tumor (CT26) model, anti-tumor efficacy; format: in vivo
Description: as §2, with “BALB/C” for “C57BL/6”, “ENVIGO (Frederick, Md.)” for “Charles River Laboratories (Raleigh, N.C.)”, “implantation.” for “implant.”, “CT26” for “MC38”
On Day 10 post implant, mice were randomized and sorted into groups with 10 mice per group. […] Antibody B was administered i.p. every 4 days for a total of 3 doses.
as §3

mouse PD-1 [8] = target: T4, mouse PD-1 (Mus musculus, UniProt Q02242); assay: Direct binding of anti-PD-1 mAb to mouse PD-1 on CHO transfectants; conditions: mouse potency; mouse PD1-expressing CHO cells
T4 construct: expressed in transfected cells; host or cells: CHO cells
T4 sequence (Q02242 25-288): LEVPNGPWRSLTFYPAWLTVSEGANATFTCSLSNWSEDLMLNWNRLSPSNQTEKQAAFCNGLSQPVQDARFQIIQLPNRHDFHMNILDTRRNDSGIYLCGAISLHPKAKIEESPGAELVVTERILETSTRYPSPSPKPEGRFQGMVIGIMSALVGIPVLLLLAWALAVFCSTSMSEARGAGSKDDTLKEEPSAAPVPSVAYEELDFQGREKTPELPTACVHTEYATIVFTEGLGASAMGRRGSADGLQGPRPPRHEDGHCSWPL
Description: Assays for Direct Binding of Anti-PD-1 Monoclonal Antibody (mAb) to PD1 Stably Expressed on CHO Transfectants
mAbs against human and mouse PD-1 were serially diluted and incubated with CHO cell transfectants stably expressing human and mouse PD-1, respectively, followed by detection with a FITC-conjugated secondary to mouse IgG Fcγ.

mouse PD-1 [9] = target: T4, mouse PD-1; assay: Blocking binding of PD-L1 to mouse PD-1 on CHO transfectants; conditions: mouse potency; mouse PD-L1, CHO mouse PD-1; read-out: Blocking PD-L1 binding to PD1-expressing cells for IC50
Description: CHO transfectants stably expressing human and mouse PD-1 were pre-incubated with titrated mAbs against human and mouse PD-1, respectively, followed by addition of PD-L1-Fc at 2 μg/mL. Cell-bound PD-L1-Fc was detected with a FITC-conjugated secondary to human IgG Fcγ.

mouse PD-1 [10] = target: T4, mouse PD-1; assay: Blocking binding of PD-L2 to mouse PD-1 on CHO transfectants; conditions: mouse potency; mouse PD-L2, CHO mouse PD-1; read-out: Blocking PD-L2 binding to PD1-expressing cells for IC50
Description: CHO transfectants stably expressing human and mouse PD-1 were pre-incubated with titrated mAbs against human and mouse PD-1, respectively, followed by addition of PD-L2-Fc at 15 μg/ml. Cell-bound PD-L2-Fc was detected with a FITC-conjugated secondary to human IgG Fc.

[11] = Tolerability in MC38 tumor-bearing mice; format: in vivo; conditions: MC38 model; alone or in combination
Description: as §3

[12] = Tolerability in CT26 tumor-bearing mice; format: in vivo; conditions: CT26 model; alone or in combination
Description: as §3

T1 sequence (P51681 whole entry): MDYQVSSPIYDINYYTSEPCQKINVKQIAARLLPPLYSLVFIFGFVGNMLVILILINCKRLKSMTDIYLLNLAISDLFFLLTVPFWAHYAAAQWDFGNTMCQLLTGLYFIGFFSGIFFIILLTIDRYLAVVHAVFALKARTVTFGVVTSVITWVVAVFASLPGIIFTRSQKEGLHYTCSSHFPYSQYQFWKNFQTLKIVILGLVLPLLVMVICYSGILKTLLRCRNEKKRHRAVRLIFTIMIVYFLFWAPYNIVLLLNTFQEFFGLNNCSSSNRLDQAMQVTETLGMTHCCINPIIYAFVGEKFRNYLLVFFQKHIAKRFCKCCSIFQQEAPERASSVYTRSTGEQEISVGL

CC(=O)N[C@@H]1C[C@H](NC(C)(C)C)CC[C@@H]1N1CC[C@H](Nc2ncnc3cc(C(C)(C)C)nn23)C1=O [Compound C, N-((1R,2S,5R)-5-(tert-butylamino)-2-((S)-3-(7-tert-butylpyrazolo[1,5-a][1,3,5]triazin-4-ylamino)-2-oxopyrrolidin-1-yl)cyclohexyl)acetamide]
IC50 (human CCR5 [1]): 2 nM | IC50 (human CCR2 [2]): 4.8 nM | mouse PK (Mouse PK of Compound C): poor | mouse CCR2 potency (mouse CCR2): poor | IC50 (human CCR5 [3]): 5.7 nM | IC50 (human CCR2 [4]): 2.9 nM | IC50 (human CCR5 [5]): 3.6 nM

CCC[C@@H]1C[C@H](N(C)C(C)C)CC[C@@H]1N1CC[C@H](Nc2ncnc3ccc(C(F)(F)F)cc23)C1=O [Compound A, (S)-1-((1S,2R,4R)-4-(isopropyl(methyl)amino)-2-propylcyclohexyl)-3-((6-(trifluoromethyl)quinazolin-4-yl)amino)pyrrolidin-2-one]
Tumor-free mice ([6]; MC38 Study #1, Compound A 25 mg/kg PO BID 28 days alone): 0/10 | Tumor-free mice ([6]; MC38 Study #1, Compound A 50 mg/kg PO BID 28 days alone): 0/10 | Tumor-free mice ([6]; MC38 Study #1, Compound A 100 mg/kg PO BID 28 days alone): 0/10 | Tumor-free mice ([6]; MC38 Study #2, Compound A 6.25 mg/kg PO BID 28 days alone): 0/10 | Tumor-free mice ([6]; MC38 Study #2, Compound A 50 mg/kg PO BID 28 days alone): 0/10 | Tumor-free mice ([7]; Compound A 12.5 mg/kg PO BID 28 days alone): 0/10 | Tumor-free mice ([7]; Compound A 25 mg/kg PO BID 28 days alone): 0/10 | Tumor-free mice ([7]; Compound A 50 mg/kg PO BID 28 days alone): 0/10

B1: Antibody B: anti-mouse PD-1 antibody generated by murinizing the Fc tail of 4H2; contains a mouse IgG1 D265A; SEQ ID NO: 1 and 2 (protein)
light: DTVLTQSPALAVSLGQRVTISCKASETVSSSMYSYIHWYQQKPGQQPKLLIYRASNLESGVPARFSGSGSGTDFTLTIDPVEADDVATYFCQQSWNPWTFGGGTKLELKRADAAPTVSIFPPSSEQLTSGGASVVCFLNNFYPKDINVKWKIDGSERQNGVLNSWTDQDSKDSTYSMSSTLTLTKDEYERHNSYTCEATHKTSTSPIVKSFNRNEC
heavy: QVQLKESGPGLVQPSQTLSLTCTVSGFSLTSYNVHWVRQPPGKGLEWMGGMRYNEDTSYNSALKSRLSISRDTSKNQVFLKMNSLQTDDTGTYYCTRDAVYGGYGGWFAYWGQGTLVTVSSAKTTPPSVYPLAPGSAAQTNSMVTLGCLVKGYFPEPVTVTWNSGSLSSGVHTFPAVLQSDLYTLSSSVTVPSSTWPSETVTCNVAHPASSTKVDKKIVPRDCGCKPCICTVPEVSSVFIFPPKPKDVLTITLTPKVTCVVVDISKDDPEVQFSWFVDDVEVHTAQTQPREEQFNSTFRSVSELPIMHQDWLNGKEFKCRVNSAAFPAPIEKTISKTKGRPKAPQVYTIPPPKEQMAKDKVSLTCMITDFFPEDITVEWQWNGQPAENYKNTQPIMDTDGSYFVYSKLNVQKSNWEAGNTFTCSVLHEGLHNHHTEKSLSHSPGK
modifications: Antibody B Light chain variable; Antibody B heavy chain variable
EC50 (mouse PD-1 [8]): 2.9 nM | IC50 (mouse PD-1 [9]): 3.6 nM | IC50 (mouse PD-1 [10]): 4.9 nM | Tumor-free mice ([6]; MC38 Study #1, Antibody B 10 mg/kg i.p., 3 doses, alone): 1/10 | Tumor-free mice ([6]; MC38 Study #2, Antibody B 10 mg/kg, 3 doses, alone): 0/10 | tolerability [11]: well tolerated | Tumor-free mice ([7]; Antibody B 10 mg/kg, 3 doses, alone): 0/10 | tolerability [12]: well tolerated

Source: patent publication US20220160718A1, “COMPOSITIONS AND METHODS OF TREATING CANCER” (Bristol-Myers Squibb Company, priority 2018, published 2022)
